Measurements reported in ChEMBL document CHEMBL4011631, “Trisubstituted Pyridinylimidazoles as Potent Inhibitors of the Clinically Resistant L858R/T790M/C797S EGFR Mutant: Targeting of Both Hydrophobic Regions and the Phosphate Binding Site” (J Med Chem, 2017).
Activity calls are given as the source filed them. No cut-off for these calls is given here.

Tests used:
[1] = target: T1, Epidermal growth factor receptor (Homo sapiens, UniProt P00533); type: ADME
Description: Inhibition of human N-terminal GST-fused EGFR cytoplasmic domain (669 to 1210 residues) expressed in baculovirus using TK-substrate-biotin preincubated for 30 mins followed by substrate addition measured after 25 mins by HTFR assay

[2] = target: T2, Epidermal growth factor receptor (Homo sapiens, UniProt P00533, L858R/T790M)
NCI-H1975 = experiment: cells; type: functional, cell-based; settings: Homo sapiens, NCI-H1975, 96 h
[3] = target: T3, Epidermal growth factor receptor (Homo sapiens, UniProt P00533, L858R)
A-431 = experiment: cells; type: ADME, cell-based; settings: Homo sapiens, A-431, 96 h
Description: Antiproliferative activity against human A431 cells harboring wild type EGFR assessed as growth inhibition after 96 hrs by CellTiter-Glo assay

[4] = target: T1, Epidermal growth factor receptor; settings: for kinact: human
Description: Inhibition of human N-terminal GST-fused EGFR cytoplasmic domain (669 to 1210 residues) expressed in baculovirus using TK-substrate-biotin incubated for 2 to 90 mins by HTFR assay

[5] = Drug degradation in human liver microsomes at 100 uM preincubated for 5 mins with NADPH-regenerating system followed by liver microsomes addition measured after 240 mins by LC-MS analysis; type: ADME, microsome; settings: read-out: Drug degradation
[6] = target: T3, Epidermal growth factor receptor; remark: listed apart in the source
[7] = target: Epidermal growth factor receptor (Homo sapiens, UniProt P00533, C797S/L858R/T790M); experiment: Inhibition of human EGFR T790M/C797S/L858R triple mutant preincubated for 20 mins followed by [33P]ATP addition measured after 2 hrs
[8] = target: T2, Epidermal growth factor receptor; remark: listed apart in the source
[9] = target: T1, Epidermal growth factor receptor; settings: read-out: Ratio
Description: Ratio of Kinact for human N-terminal GST-fused EGFR cytoplasmic domain (669 to 1210 residues) expressed in baculovirus to Ki for human N-terminal GST-fused EGFR cytoplasmic domain (669 to 1210 residues) expressed in baculovirus

[10] = test system: Epidermal growth factor receptor (Homo sapiens), P00533 [T790M]; experiment: Covalent binding affinity to EGFR T790M mutant (unknown origin) at 100 uM after 1 hr by mass spectrometric analysis

SMILES | IC50 [1] | IC50 [2] | EC50 (NCI-H1975) | IC50 [3] | EC50 (A-431) | Ki [4] | kinact [4] | metabolised at 4 h, 100 µM [5] | Ki [6] | IC50 [7] | Ki [8] | kinact/KI [9] | Activity [10]
Fc1ccc(-c2nc(SCCN3CCOCC3)[nH]c2-c2ccnc(Nc3ccccc3)c2)cc1 | 183 nM | 1250 nM | 15000 nM | 75 nM | 10000 nM | – | – | – | – | – | – | – | –
C=CC(=O)Nc1ccc(OC)c(Nc2cc(-c3[nH]c(CCCO)nc3-c3ccc(F)cc3)ccn2)c1 | < 1 nM | < 1 nM | 400 nM | < 1 nM | 4000 nM | 0.07 nM | 0.00267 s⁻¹ | 9% | 0.03 nM | 8 nM | 0.1 nM | 1.5e+07 M⁻¹ s⁻¹ | –
CN(C)C/C=C/C(=O)NCCSc1nc(-c2ccc(F)cc2)c(-c2ccnc(Nc3ccccc3)c2)[nH]1 | 2.7 nM | 18 nM | > 5000 nM | 1.9 nM | 6600 nM | – | – | – | – | – | – | – | –
C=CC(=O)NCc1cccc(Nc2cc(-c3[nH]c(SC)nc3-c3ccc(F)cc3)ccn2)c1 | 16 nM | 89 nM | 3400 nM | 4.9 nM | 14000 nM | – | – | – | – | – | – | – | –
CSc1nc(-c2ccc(F)cc2)c(-c2ccnc(Nc3cc(N4CCN(C)CC4)cc([N+](=O)[O-])c3)c2)[nH]1 | 2.1 nM | 12 nM | 13000 nM | < 1 nM | 7800 nM | – | – | – | – | – | – | – | –
CCC(=O)Nc1cccc(Nc2cc(-c3[nH]c(SC)nc3-c3ccc(F)cc3)ccn2)c1 | 22 nM | 93 nM | 2200 nM | 6.8 nM | 1500 nM | – | – | – | – | 223 nM | – | – | inactive
C=CC(=O)Nc1ccc(OC)c(Nc2cc(-c3[nH]c(SC)nc3-c3ccc4ccccc4c3)ccn2)c1 | < 1 nM | 1.1 nM | 380 nM | < 1 nM | 3000 nM | – | – | – | – | – | – | – | –
CSc1nc(-c2ccc(F)cc2)c(-c2ccnc(Nc3ccccc3)c2)[nH]1 | 24 nM | 130 nM | 22000 nM | 2.5 nM | 11000 nM | – | – | – | – | – | – | – | –
C=CC(=O)NCc1cn(Cc2cccc(Nc3cc(-c4[nH]c(SC)nc4-c4ccc(F)cc4)ccn3)c2)nn1 | 164 nM | 597 nM | 23000 nM | 46 nM | 24000 nM | – | – | – | – | – | – | – | –
C=CC(=O)Nc1cccc(Oc2nc(Nc3ccc(N4CCN(C)CC4)cc3OC)ncc2Cl)c1 | – | – | 100 nM | – | 2200 nM | – | – | – | – | – | – | – | –
N#CCCSc1nc(-c2ccc(F)cc2)c(-c2ccnc(Nc3ccccc3)c2)[nH]1 | 109 nM | 746 nM | 16000 nM | 40 nM | 17000 nM | – | – | – | – | – | – | – | –
CCC(=O)Nc1ccc(OC)c(Nc2cc(-c3[nH]c(CCCO)nc3-c3ccc(F)cc3)ccn2)c1 | < 1 nM | < 1 nM | 7200 nM | < 1 nM | 17000 nM | – | – | – | – | 7 nM | – | – | –
OCCSc1nc(-c2ccc(F)cc2)c(-c2ccnc(Nc3ccccc3)c2)[nH]1 | 11 nM | 83 nM | 16000 nM | 1.1 nM | 11000 nM | – | – | – | – | – | – | – | –
C=CC(=O)Nc1ccc(OC)c(Nc2cc(-c3[nH]c(SC)nc3C(C)(C)C)ccn2)c1 | 57 nM | 485 nM | 18000 nM | 16 nM | 20000 nM | – | – | – | – | – | – | – | –
C=CC(=O)NCCSc1nc(-c2ccc(F)c(C(F)(F)F)c2)c(-c2ccnc(Nc3ccccc3)c2)[nH]1 | 45 nM | 646 nM | 3100 nM | 144 nM | 11000 nM | – | – | – | – | – | – | – | –
C=CC(=O)NCCSc1nc(-c2ccc(F)cc2)c(-c2ccnc(Nc3ccccc3)c2)[nH]1 | 1.6 nM | 38 nM | 2400 nM | 2.2 nM | 12000 nM | 1.6 nM | 0.0015 s⁻¹ | – | 0.38 nM | – | 6 nM | 940000 M⁻¹ s⁻¹ | –
CSc1nc(-c2ccc(F)cc2)c(-c2ccnc(Nc3cc(F)cc([N+](=O)[O-])c3)c2)[nH]1 | 265 nM | 586 nM | 30000 nM | 55 nM | 19000 nM | – | – | – | – | – | – | – | –
C=CC(=O)N1CCC[C@H]1CSc1nc(-c2ccc(F)cc2)c(-c2ccnc(Nc3ccccc3)c2)[nH]1 | – | – | 4700 nM | – | 8800 nM | – | – | – | – | – | – | – | –
C=CC(=O)Nc1ccc(OC)c(Nc2cc(-c3[nH]c(SC)nc3C3CCC3)ccn2)c1 | < 1 nM | 6.8 nM | 2000 nM | < 1 nM | 8900 nM | – | – | – | – | – | – | – | –
C=CC(=O)Nc1ccc(OC)c(Nc2cc(-c3[nH]c(SC)nc3C3CCCC3)ccn2)c1 | < 1 nM | 4.5 nM | 1400 nM | < 1 nM | 7800 nM | – | – | – | – | – | – | – | –

SMILES | IC50 [1] | IC50 [2] | EC50 (NCI-H1975) | IC50 [3] | EC50 (A-431) | Ki [4] | kinact [4] | metabolised at 4 h, 100 µM [5] | Ki [6] | IC50 [7] | Ki [8] | kinact/KI [9] | Activity [10]
C=CC(=O)Nc1ccc(OC)c(Nc2cc(-c3[nH]c(SC)nc3C3CC3)ccn2)c1 | 2.3 nM | 7.4 nM | 2300 nM | < 1 nM | 8000 nM | – | – | – | – | – | – | – | –
C=CC(=O)Nc1ccc(OC)c(Nc2cc(-c3[nH]c(SC)nc3C)ccn2)c1 | 32 nM | 33 nM | 4100 nM | 10 nM | 9700 nM | – | – | – | – | – | – | – | –
C=CC(=O)Nc1cccc(Nc2cc(-c3[nH]c(SCCNC(=O)CC)nc3-c3ccccc3)ccn2)c1 | < 1 nM | 2.5 nM | 2800 nM | < 1 nM | 1500 nM | – | – | – | – | – | – | – | –
C=CC(=O)Nc1cccc(Nc2cc(-c3[nH]c(SC)nc3-c3ccc(F)cc3)ccn2)n1 | < 1 nM | 3.1 nM | 1500 nM | < 1 nM | 1700 nM | – | – | – | – | – | – | – | –
C=CC(=O)NCCSc1nc(-c2ccccc2)c(-c2ccnc(Nc3ccccc3)c2)[nH]1 | 12 nM | 29 nM | 3200 nM | 1.7 nM | 11000 nM | – | – | – | – | – | – | – | –
C=CC(=O)Nc1cc(Nc2cc(-c3[nH]c(SC)nc3-c3ccc(F)cc3)ccn2)cc(N2CCN(C)CC2)c1 | < 1 nM | < 1 nM | 1100 nM | < 1 nM | 1400 nM | – | – | 27% | – | 11 nM | – | – | –
C=CC(=O)Nc1cc(Nc2cc(-c3[nH]c(SC)nc3-c3ccc(F)cc3)ccn2)cc(N2CCOCC2)c1 | < 1 nM | < 1 nM | 1300 nM | < 1 nM | 1500 nM | – | – | – | – | 53 nM | – | – | –
CCC(=O)Nc1ccc(OC)c(Nc2cc(-c3[nH]c(SC)nc3-c3ccc(F)cc3)ccn2)c1 | < 1 nM | 5 nM | 4300 nM | < 1 nM | 7700 nM | – | – | – | – | 167 nM | – | – | –
C=CC(=O)Nc1ccc(OC)c(Nc2cc(-c3[nH]c(SC)nc3-c3cccs3)ccn2)c1 | < 1 nM | < 1 nM | 84 nM | < 1 nM | 7400 nM | – | – | – | – | – | – | – | –
C=CC(=O)Nc1ccc(OC)c(Nc2cc(-c3cnc(SC)[nH]3)ccn2)c1 | 17 nM | 8.6 nM | 2000 nM | 5.6 nM | 4100 nM | – | – | – | – | – | – | – | –
NCCSc1nc(-c2ccc(F)cc2)c(-c2ccnc(Nc3ccccc3)c2)[nH]1 | 4.8 nM | 29 nM | 7200 nM | 2.6 nM | 11000 nM | – | – | – | – | – | – | – | –
C=CC(=O)Nc1ccc(OC)c(Nc2cc(-c3[nH]c(SC)nc3-c3ccc(F)cc3)ccn2)c1 | – | – | < 14 nM | – | 4100 nM | – | – | 23% | – | – | – | – | Active
C=CC(=O)N1CCC[C@@H]1CSc1nc(-c2ccc(F)cc2)c(-c2ccnc(Nc3ccccc3)c2)[nH]1 | – | – | 3400 nM | – | 6900 nM | – | – | – | – | – | – | – | –
CC(=O)CCCSc1nc(-c2ccc(F)cc2)c(-c2ccnc(Nc3ccccc3)c2)[nH]1 | 185 nM | 1330 nM | 14000 nM | 76 nM | 12000 nM | – | – | – | – | – | – | – | –
C=CC(=O)N1CCC(Sc2nc(-c3ccc(F)cc3)c(-c3ccnc(Nc4ccccc4)c3)[nH]2)C1 (centres undefined) | 217 nM | 417 nM | 14000 nM | 25 nM | 17000 nM | – | – | – | – | – | – | – | –
NCCCSc1nc(-c2ccc(F)cc2)c(-c2ccnc(Nc3ccccc3)c2)[nH]1 | 55 nM | 240 nM | 8400 nM | 12 nM | 7400 nM | – | – | – | – | – | – | – | –
CCC(=O)Nc1ccc(OC)c(Nc2cc(-c3cnc(SC)[nH]3)ccn2)c1 | 1770 nM | 3510 nM | > 30000 nM | 360 nM | 13000 nM | – | – | – | – | – | – | – | –
C=CC(=O)Nc1cccc(Nc2cc(-c3[nH]c(SC)nc3-c3ccc(F)cc3)ccn2)c1 | < 1 nM | 3.3 nM | 190 nM | < 1 nM | 1700 nM | – | – | – | – | – | – | – | Active
CCC(=O)NCCSc1nc(-c2ccc(F)cc2)c(-c2ccnc(Nc3ccccc3)c2)[nH]1 | 33 nM | 52 nM | 9700 nM | 3.2 nM | 16000 nM | – | – | – | – | – | – | – | –
CN(C)C(=O)CSc1nc(-c2ccc(F)cc2)c(-c2ccnc(Nc3ccccc3)c2)[nH]1 | – | – | 16000 nM | – | 18000 nM | – | – | – | – | – | – | – | –
C=CC(=O)NCCCSc1nc(-c2ccc(F)cc2)c(-c2ccnc(Nc3ccccc3)c2)[nH]1 | 16 nM | 321 nM | 1300 nM | 22 nM | 1400 nM | – | – | – | – | – | – | – | –
